Source: the supplement of paper PMC10307832

Assays:
Experiment in all cases: relative viability (nuclei count vs DMSO), 5 days (fraction); higher = more cells survive
[1] = compound: CN1C=C(C2=CC=CC=C21)/C=C\3/C4=C(C=CC=N4)NC3=O + C[C@@H](Oc1cc(-c2cnn(C3CCNCC3)c2)cnc1N)c1c(Cl)ccc(F)c1Cl [Crizotinib] (partner 1 µM)
Summary of the method: (§1)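 Relative viability is defined as nuclei in treated wells over nuclei in vehicle wells. Duplicate plates were run and medians reported. Lung cancer cell lines in 1536-well plates were dosed by pin tool one day after seeding, with one drug or with a fixed anchor-drug dose plus five library-drug doses (not always all listed) in √10 steps, and nuclei were counted after 5 days.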

Trametinib + Pemetrexed = compound: CC(=O)Nc1cccc(-n2c(=O)n(C3CC3)c(=O)c3c(Nc4ccc(I)cc4F)n(C)c(=O)c(C)c32)c1 [Trametinib] + Nc1nc2[nH]cc(CCc3ccc(C(=O)N[C@@H](CCC(=O)O)C(=O)O)cc3)c2c(=O)[nH]1 [Pemetrexed] (partner 0.2 µM)
Summary of the method: as §1

[2] = compound: CN1C=C(C2=CC=CC=C21)/C=C\3/C4=C(C=CC=N4)NC3=O + CCNC(=O)c1noc(-c2cc(C(C)C)c(O)cc2O)c1-c1ccc(CN2CCOCC2)cc1 [Luminespib] (partner 0.01 µM)
Summary of the method: as §1

Trametinib + Dasatinib = compound: CC(=O)Nc1cccc(-n2c(=O)n(C3CC3)c(=O)c3c(Nc4ccc(I)cc4F)n(C)c(=O)c(C)c32)c1 [Trametinib] + Cc1nc(Nc2ncc(C(=O)Nc3c(C)cccc3Cl)s2)cc(N2CCN(CCO)CC2)n1 [Dasatinib] (partner 0.075 µM)
Summary of the method: as §1

Cell Line	relative viability ([1]; first compound 0.06325 µM)	relative viability ([1]; first compound 0.2 µM)	relative viability ([1]; first compound 0.6325 µM)	relative viability ([1]; first compound 2 µM)	relative viability (Trametinib + Pemetrexed; first compound 0.0025 µM)	relative viability (Trametinib + Pemetrexed; first compound 0.007906 µM)	relative viability (Trametinib + Pemetrexed; first compound 0.025 µM)	relative viability (Trametinib + Pemetrexed; first compound 0.07906 µM)	relative viability (Trametinib + Pemetrexed; first compound 0.25 µM)	relative viability ([2]; first compound 0.6325 µM)	relative viability ([2]; first compound 2 µM)	relative viability (Trametinib + Dasatinib; first compound 0.0025 µM)	relative viability (Trametinib + Dasatinib; first compound 0.007906 µM)	relative viability (Trametinib + Dasatinib; first compound 0.025 µM)	relative viability (Trametinib + Dasatinib; first compound 0.07906 µM)	relative viability (Trametinib + Dasatinib; first compound 0.25 µM)	relative viability ([1]; first compound 0.02 µM)	relative viability ([2]; first compound 0.02 µM)	relative viability ([2]; first compound 0.06325 µM)	relative viability ([2]; first compound 0.2 µM)
LK-2	0.205	0.202	0.243	0.219	0.226	0.305	0.213	0.184	0.102	0.189	0.186	0.251	0.272	0.239	0.212	0.156				
HCC-827	0.916		0.96	0.978	0.271	0.271	0.263	0.214	0.235	0.59	0.756	0.301	0.243	0.246	0.144	0.157	0.835	0.589	0.52	
SW 1573	0.832	0.816	0.712	0.874	0.732	0.76	0.538	0.555	0.331	0.181	0.243	0.513	0.389	0.371	0.323	0.266	0.727	0.235	0.279	0.327
NCI-H2023	0.543	0.606	0.62	0.694	0.205	0.187	0.184	0.189	0.14	0.914	0.527	0.484	0.485	0.515	0.34	0.221	0.647	0.899	0.602	0.763
EPLC-272H	0.96		0.909	1.06	0.318	0.328	0.287	0.294	0.27		0.383	0.275	0.231	0.215	0.138	0.12	0.924	0.156	0.309	0.169
SK-LU-1	0.809	1.14	1.07	1.1	0.951	0.866	0.822	0.582	0.353	0.184	0.2	0.192	0.183	0.148	0.15	0.159	0.619	0.201	0.185	0.191
NCI-H358	0.497	0.606	0.601	0.633	0.156	0.143	0.164	0.16	0.152	0.309	0.407	0.137	0.117	0.103	0.11	0.143	0.56	0.397	0.377	0.403
NCI-H2085	0.892	0.752	0.868	0.803	0.752	0.676	0.545	0.528	0.516	0.411	0.485	0.215	0.185	0.233	0.213	0.222	0.738	0.454	0.412	0.436
